Results from patent US20210300924A1, “5-[6-[[3-(4,5,6,7-TETRAHYDROPYRAZOLO[4,3-C]PYRIDIN-1-YL)AZETIDIN-1-YL]METHYL]MORPHOLIN-4-YL]QUINOLINE-8-CARBONITRILE DERIVATIVES AND SIMILAR COMPOUNDS AS TLR7-9 ANTAGONISTS FOR TREATING SYSTEMIC LUPUS ERYTHEMATOSUS” (Hoffmann-La Roche Inc., priority 2018, published 2021).

What was measured:
CYP2D6 = target: T1, CYP2D6 (Homo sapiens, UniProt P10635); experiment: CYP inhibition assay in human liver microsome; assay type: in vitro ADME; conditions: human liver microsomes, probe dextromethorphan, dextromethorphan substrate, percentage inhibition <0: not or weak inhibitor, read-out: CYP 2D6 inhibition % @ 10 μM
T1 construct: tissue BD-Gentest 452117; host or cells: human liver microsomes
T1 sequence (P10635 whole entry): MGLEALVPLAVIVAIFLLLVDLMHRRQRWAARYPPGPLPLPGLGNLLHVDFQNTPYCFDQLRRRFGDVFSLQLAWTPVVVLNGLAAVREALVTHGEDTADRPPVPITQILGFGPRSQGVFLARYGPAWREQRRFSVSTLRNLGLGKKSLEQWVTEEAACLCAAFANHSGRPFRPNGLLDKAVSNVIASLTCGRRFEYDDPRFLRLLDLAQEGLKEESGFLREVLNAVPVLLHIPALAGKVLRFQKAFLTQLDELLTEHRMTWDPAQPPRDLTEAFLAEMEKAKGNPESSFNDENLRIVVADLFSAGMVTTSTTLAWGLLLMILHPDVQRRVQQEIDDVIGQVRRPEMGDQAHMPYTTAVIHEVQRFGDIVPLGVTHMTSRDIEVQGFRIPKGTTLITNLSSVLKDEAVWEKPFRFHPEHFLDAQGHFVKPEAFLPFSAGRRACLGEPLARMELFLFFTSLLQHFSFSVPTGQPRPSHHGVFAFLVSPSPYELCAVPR
Procedure: This is a high throughput screening assay used for assessment of reversible inhibition of CYP2D6 activity of test compounds in human liver microsome (HLM) in early discovery stage.
10 mM DMSO stock solutions of test compounds were diluted in DMSO to generate 2 mM intermediate stock solution. 250 nL of intermediate stock solution were transferred in duplicate into 3 separate 384 well microtitre plates (assay-ready plates). A mixture of HLM and each substrate was made up. 45 μL of HLM substrate mix was then transferred to each well of an assay ready plate and mixed. The negative (solvent) and positive control (standard inhibitor for CYP 2D6) were included in each assay ready plate. The assay ready plate was warmed to 37° C. in an incubator over 10 minutes. 5 μL pre-warmed NADPH regenerating system was added to each incubation well to start the reaction. Final incubation volume was 50 μL. The assay plate then was placed back in the 37° C. incubator. After 10 minutes incubation, incubates were quenched by addition of 50 μL 100% acetonitrile containing internal standards (20 ng/mL D3-Dextrorphan). The supernatants were collected for RapidFire/MS/MS analysis.
RapidFire online solid phase extraction/sample injection system (Agilent) coupled with API4000 triple quadrupole mass spectrometer (AB Sciex) were used for sample analysis. The mobile phase composed of acetonitrile and water supplemented with 0.1% formic acid. A C4 solid phase extraction cartridge is used for sample separation. MS detection is achieved in positive ion MRM mode.
Peak areas for substrate, metabolite and internal standard are determined using the RapidFire integrator software (version 3.6.12009.12296). Peak area ratios (PAR) of metabolite and internal standard (stable-labelled metabolite) are then calculated. The measurement window for each experiment is then defined:
PAR (0% activity)=average PAR for all incubations containing concentrated inhibitor;
Par (100% activity)=average PAR for all incubations containing no inhibitor (DMSO controls);
% Activity (test inhibitor)=
[PAR(test inhibitor)−PAR(0% activity)]/[PAR(100% activity)−PAR(0% activity)]; % Inhibition (test inhibitor)=100−% Activity (test inhibitor).

human TLR7 = target: T2, human TLR7 (Homo sapiens, UniProt Q9NYK1); experiment: HEK293-Blue-hTLR-7 cells assay; assay type: cell-based; conditions: HEK293-Blue-hTLR7 cells, R848 stimulation, 20 hrs, SEAP reporter; read-out: HEK/hTLR7 IC50
T2 construct: host or cells: HEK293 (HEK-Blue hTLR7)
T2 sequence (Q9NYK1 27-1049): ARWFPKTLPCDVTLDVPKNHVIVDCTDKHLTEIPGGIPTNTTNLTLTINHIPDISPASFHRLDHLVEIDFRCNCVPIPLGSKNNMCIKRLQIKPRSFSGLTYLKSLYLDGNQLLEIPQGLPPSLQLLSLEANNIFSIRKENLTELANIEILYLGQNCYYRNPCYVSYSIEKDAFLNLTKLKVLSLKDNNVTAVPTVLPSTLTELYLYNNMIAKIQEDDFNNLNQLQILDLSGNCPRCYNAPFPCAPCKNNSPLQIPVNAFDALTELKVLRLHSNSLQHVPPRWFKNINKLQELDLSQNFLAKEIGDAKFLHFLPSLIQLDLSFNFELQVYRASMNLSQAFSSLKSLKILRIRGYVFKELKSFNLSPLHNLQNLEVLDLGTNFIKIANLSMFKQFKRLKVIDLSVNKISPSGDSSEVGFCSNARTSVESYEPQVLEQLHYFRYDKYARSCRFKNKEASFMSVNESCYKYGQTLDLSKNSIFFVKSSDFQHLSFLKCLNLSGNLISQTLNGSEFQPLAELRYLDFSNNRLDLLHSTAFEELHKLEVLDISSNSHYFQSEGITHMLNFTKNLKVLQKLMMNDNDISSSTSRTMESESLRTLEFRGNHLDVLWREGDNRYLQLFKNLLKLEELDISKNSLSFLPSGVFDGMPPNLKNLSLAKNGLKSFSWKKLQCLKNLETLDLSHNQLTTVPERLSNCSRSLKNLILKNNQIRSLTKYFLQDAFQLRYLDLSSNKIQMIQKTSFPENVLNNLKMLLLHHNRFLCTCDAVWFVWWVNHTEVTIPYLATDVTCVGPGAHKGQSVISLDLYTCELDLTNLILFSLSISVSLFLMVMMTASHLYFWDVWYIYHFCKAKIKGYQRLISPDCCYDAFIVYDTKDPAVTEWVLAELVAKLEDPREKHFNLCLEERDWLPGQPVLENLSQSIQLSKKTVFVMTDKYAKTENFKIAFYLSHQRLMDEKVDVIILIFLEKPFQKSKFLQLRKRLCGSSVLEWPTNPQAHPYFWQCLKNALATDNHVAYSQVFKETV
Excerpt: HEK293-Blue-hTLR-7 cells assay:
A stable HEK293-Blue-hTLR-7 cell line was purchased from InvivoGen (Cat. #: hkb-htlr7, San Diego, Calif., USA). These cells were originally designed for studying the stimulation of human TLR7 by monitoring the activation of NF-κB. A SEAP (secreted embryonic alkaline phosphatase) reporter gene was placed under the control of the IFN-β minimal promoter fused to five NF-κB and AP-1-binding sites. The SEAP was induced by activating NF-κB and AP-1 via stimulating HEK-Blue hTLR7 cells with TLR7 ligands. Therefore the reporter expression was declined by TLR7 antagonist under the stimulation of a ligand, such as R848 (Resiquimod), for incubation of 20 hrs. The cell culture supernatant SEAP reporter activity was determined using QUANTI-Blue™ kit (Cat. #: rep-qb1, Invivogen, San Diego, Ca, USA) at a wavelength of 640 nm, a detection medium that turns purple or blue in the presence of alkaline phosphatase.
HEK293-Blue-hTLR7 cells were incubated at a density of 250,000-450,000 cells/mL in a volume of 170 μL in a 96-well plate in Dulbecco's Modified Eagle's medium (DMEM) containing 4.5 g/L glucose, 50 U/mL penicillin, […], […], 2 mM L-glutamine, 10% (v/v) heat-inactivated fetal bovine serum with addition of 20 μL test compound in a serial dilution in the presence of final DMSO at 1% and 10 μL of 20 uM R848 in above DMEM, perform incubation under 37° C. in a CO2 incubator for 20 hrs. Then 20 μL of the supernatant from each well was incubated with 180 μL Quanti-blue substrate solution at 37° C. for 2 hrs and the absorbance was read at 620˜655 nm using a spectrophotometer. The signaling pathway that TLR7 activation leads to downstream NF-κB activation has been widely accepted, and therefore similar reporter assay was modified for evaluating TLR7 antagonist.

Row | SMILES | inhibition at 10 min, 10 µM (CYP2D6) [%] | IC50 (human TLR7) [nM]
1 | C[C@@H]1CN(c2ccc(C#N)c3ncccc23)C[C@H](CN2CC(n3ncc4c3[C@H](C)NCC4)C2)O1 (single isomer, unassigned) [Example 32] | 11 | < 3
2 | C[C@@H]1CN(c2ccc(C#N)c3ncccc23)C[C@H](CN2CC(n3cc4c(n3)[C@H](C)NCC4)C2)O1 (single isomer, unassigned) [Example 34] | -11.5 | 6
3 | C[C@@H]1CN(c2ccc(C#N)c3ncccc23)C[C@H](CN2CC(n3ncc4c3CCN[C@@H]4C)C2)O1 [Example 20, 5-[(2R,6S)-2-methyl-6-[[3-[(4R)-4-methyl-4,5,6,7-tetrahydropyrazolo[4,3-c]pyridin-1-yl]azetidin-1-yl]methyl]morpholin-4-yl]quinoline-8-carbonitrile] | -6 | 5
4 | C[C@@H]1Cc2cn(C3CN(C[C@H]4CN(c5ccc(C#N)c6ncccc56)C[C@@H](C)O4)C3)nc2CN1 (single isomer, unassigned) [Example 30] | 3.5 | 5
5 | C[C@@H]1Cc2c(cnn2C2CN(C[C@H]3CN(c4ccc(C#N)c5ncccc45)C[C@@H](C)O3)C2)CN1 [Example 16, 5-[(2R,6S)-2-methyl-6-[[3-[(6R)-6-methyl-4,5,6,7-tetrahydropyrazolo[4,3-c]pyridin-1-yl]azetidin-1-yl]methyl]morpholin-4-yl]quinoline-8-carbonitrile] | 8 | 4
6 | Cc1c2c(nn1C1CN(C[C@H]3CN(c4ccc(C#N)c5ncccc45)C[C@@H](C)O3)C1)CCN(C)C2 [Example 15, 5-[(2S,6R)-2-[[3-(3,5-dimethyl-6,7-dihydro-4H-pyrazolo[4,3-c]pyridin-2-yl)azetidin-1-yl]methyl]-6-methyl-morpholin-4-yl]quinoline-8-carbonitrile] | -10.5 | 9
7 | C[C@@H]1CN(c2ccc(C#N)c3ncccc23)C[C@H](CN2CC(n3cc4c(n3)CNC4)C2)O1 [Example 11, 5-[(2S,6R)-2-[[3-(5,6-dihydro-4H-pyrrolo[3,4-c]pyrazol-2-yl)azetidin-1-yl]methyl]-6-methyl-morpholin-4-yl]quinoline-8-carbonitrile] | -6 | 17
8 | C[C@@H]1CN(c2ccc(C#N)c3ncccc23)C[C@H](CN2CCC(n3cc4c(n3)CCNC4)CC2)O1 [Example 36, 5-[(2R,6S)-2-methyl-6-[[4-(4,5,6,7-tetrahydropyrazolo[4,3-c]pyridin-2-yl)-1-piperidyl]methyl]morpholin-4-yl]quinoline-8-carbonitrile] | 20.3 | 18
9 | C[C@@H]1Cc2nn(C3CN(C[C@H]4CN(c5ccc(C#N)c6ncccc56)C[C@@H](C)O4)C3)cc2CN1 [Example 17, 5-[(2R,6S)-2-methyl-6-[[3-[(6R)-6-methyl-4,5,6,7-tetrahydropyrazolo[4,3-c]pyridin-2-yl]azetidin-1-yl]methyl]morpholin-4-yl]quinoline-8-carbonitrile] | 1.5 | 4
10 | Cc1c2c(nn1C1CN(C[C@H]3CN(c4ccc(C#N)c5ncccc45)C[C@@H](C)O3)C1)CCNC2 [Example 13, 5-[(2R,6S)-2-methyl-6-[[3-(3-methyl-4,5,6,7-tetrahydropyrazolo[4,3-c]pyridin-2-yl)azetidin-1-yl]methyl]morpholin-4-yl]quinoline-8-carbonitrile] | 3 | 14
11 | C[C@@H]1CN(c2ccc(C#N)c3ncccc23)C[C@H](CN2CC(n3ncc4c3CCN[C@H]4C)C2)O1 [Example 22, 5-[(2R,6S)-2-methyl-6-[[3-[(4S)-4-methyl-4,5,6,7-tetrahydropyrazolo[4,3-c]pyridin-1-yl]azetidin-1-yl]methyl]morpholin-4-yl]quinoline-8-carbonitrile] | 5.5 | 5
12 | CCN1CCc2cnn(C3CN(C[C@H]4CN(c5ccc(C#N)c6ncccc56)C[C@@H](C)O4)C3)c2C1 [Example 6, 5-[(2S,6R)-2-[[3-(6-ethyl-5,7-dihydro-4H-pyrazolo[3,4-c]pyridin-1-yl)azetidin-1-yl]methyl]-6-methyl-morpholin-4-yl]quinoline-8-carbonitrile] | 8.5 | 12
13 | C[C@@H]1CN(c2ccc(C#N)c3ncccc23)C[C@H](CN2CC(n3cc4c(n3)CCN[C@H]4C)C2)O1 [Example 23, 5-[(2R,6S)-2-methyl-6-[[3-[(4S)-4-methyl-4,5,6,7-tetrahydropyrazolo[4,3-c]pyridin-2-yl]azetidin-1-yl]methyl]morpholin-4-yl]quinoline-8-carbonitrile] | 3 | 13
14 | CC(C)N1CCc2cn(C3CN(C[C@H]4CN(c5ccc(C#N)c6ncccc56)C[C@@H](C)O4)C3)nc2C1 [Example 9, 5-[(2S,6R)-2-[[3-(6-isopropyl-5,7-dihydro-4H-pyrazolo[3,4-c]pyridin-2-yl)azetidin-1-yl]methyl]-6-methyl-morpholin-4-yl]quinoline-8-carbonitrile] | 15 | 12
15 | C[C@@H]1Cc2cnn(C3CN(C[C@H]4CN(c5ccc(C#N)c6ncccc56)C[C@@H](C)O4)C3)c2CN1 (single isomer, unassigned) [Example 28] | 0.5 | 5
16 | C[C@@H]1CN(c2ccc(C#N)c3ncccc23)C[C@H](CN2CC(n3ncc4c3C[C@H](C)NC4)C2)O1 [Example 18, 5-[(2R,6S)-2-methyl-6-[[3-[(6S)-6-methyl-4,5,6,7-tetrahydropyrazolo[4,3-c]pyridin-1-yl]azetidin-1-yl]methyl]morpholin-4-yl]quinoline-8-carbonitrile] | -2.5 | 17
